This assay addresses T1, leukotriene receptor (guinea pig lung membranes) (Cavia porcellus, UniProt Q2NNR5).
T1 construct: 20 mg original tissue wet weight of guinea pig lung; tissue Kuiper Rabbit Farm, Gary, IN (animals); host or cells: guinea pig lung, crude membranes
T1 sequence (Q2NNR5 1-340): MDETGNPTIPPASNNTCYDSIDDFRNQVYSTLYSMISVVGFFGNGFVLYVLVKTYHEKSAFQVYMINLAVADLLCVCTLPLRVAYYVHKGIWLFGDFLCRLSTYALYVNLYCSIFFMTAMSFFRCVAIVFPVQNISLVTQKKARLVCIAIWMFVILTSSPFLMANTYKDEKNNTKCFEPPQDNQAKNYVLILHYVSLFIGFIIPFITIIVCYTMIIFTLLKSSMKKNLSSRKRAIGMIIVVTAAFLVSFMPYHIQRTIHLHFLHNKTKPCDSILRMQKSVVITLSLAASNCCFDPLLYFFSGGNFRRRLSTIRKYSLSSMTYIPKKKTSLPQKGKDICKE
Description: Binding of ^3 H-Leukotriene D4 to Guinea Pig Lung Membranes (RBL). The conditions noted are these: 0.2 nM ^3 H-LTD4, 60 min, 25° C.; read-out: Concentration (M) for 50.0 % Inhibition, IC (RBL). As to the method:
Additionally, the activity, of the compounds having the Formula I of the present invention is determined by the well known leukotriene receptor binding assay that is described by R. F. Bruns, W. J. Thomsen and T. A. Pugsley in Life Sciences, 33, 645 (1983) or the Herxheimer in vivo antiallergy test described in H. Herxheimer, J. Physiol. (London), Vol. 177, p. 251 (1952).
Binding of ^3 H-Leukotriene D4 to Guinea Pig Lung Membranes (RBL)
[14,15-^3 H]leukotriene D4 (^3 H-LTD4) (25 Ci/mmol and 40 Ci/mmol) is purchased from New England Nuclear. Unlabeled LTC4 is a gift of Ono Pharmaceuticals (Japan). LTC4, LTD4, and LTE4 are purchased as methyl esters from Paesel GmbH (Frankfurt, W. Germany). Concentrations of the Paesel leukotrienes are calculated from their absorbance at 280 nm. Leukotriene esters are saponified overnight under N2 in 3.3% potassium carbonate at room temperature. Tritiated leukotrienes are stored as received from New England Nuclear at -20° C. Ono LTC4 (5 μg/ml) is stored at -60° C. in phosphate buffer pH 6.8. Saponified Paesel leukotrienes are stored at -60° C. in 3.3% potassium carbonate (pH 9.0-9.5). Aliquots of leukotrienes are taken from stock solutions immediately after thawing, after which the stock solutions are immediately refrozen. 2-Amino-2-(hydroxymethyl)-1,3-propanediol (Tris) is Sigma pH 7.7 pre-set crystals, and dimethylsulfoxide is Aldrich Gold Label.
Preparation of crude lung membranes
Two pairs of lungs (1.3 g) from freshly sacrificed 300 g male guinea pigs (older animals gave substantially lower binding) from Kuiper Rabbit Farm, Gary, IN are disrupted with a Polytron PT 10 (setting 4) for 30 seconds in 20 ml ice-cold 50 mM Tris adjusted with HCl to pH 7.7 at 25° C. (Tris buffer), filtered through a single layer of gauze to remove connective tissue, and centrifuged at 50,000 xg for ten min. The pellet is resuspended by homogenization with a Polytron in 20 ml Tris buffer, centrifuged at 50,000 xg for ten min., resuspended, incubated at 37° C. for 30 minutes, and centrifuged again. The final pellet is resuspended in Tris buffer and either used fresh or stored at -70° C.
All incubations are in triplicate for 60 minutes at 25° C. in 12×75 mm polystyrene tubes containing 1 ml Tris buffer with 20 mg original tissue wet weight of guinea pig lung nmembranes, 0.2 nM ^3 H-LTD4 (6,000-11,000 cpm), 10 mM MgCl2, and 1% dimethylsulfoxide Leukotrienes are diluted in Tris buffer. All other test compounds dissolved at 10 mM in dimethylsulfoxide on the same day as the experiment, and diluted in dimethylsulfoxide to 100× the final incubation concentration. Control incubations receive an equal volume (10 μl) of dimethylsulfoxide; the resulting concentration of dimethylsulfoxide had no effect on binding. ^3 H-LTD4 is diluted to 2 nM in Tris buffer. The membrane suspension (20 mg/0.89 ml) contains sufficient MgCl2 to give 10 mM final concentration in the incubation. […] All additions are performed at 0° C. Immediately after the last addition, the incubation is initiated by agitating the rack of tubes on a vortex mixer and warming to 25° C. in a water bath. Tubes are vortexed at least once more during the incubation to ensure that the membranes remained suspended. Incubations are terminated after 60 minutes by filtering under reduced pressure through 25 mm Whatman GF/B filters followed by rapid washing three times with 4 ml of ice-cold Tris buffer. Filters are added to scintillation vials with 8 ml Formula 947 (New England Nuclear), left overnight, shaken, and the radioactivity counted in a scintillation counter (efficiency 40%). Nonspecific binding, defined as binding of ^3 H-LTD4 in the presence of 100 nM LTC4, is 300-500 cpm for all lots of ^3 H-LTD4. Binding to the filters in the absence of tissue is about 100 cpm, and is not affected by unlabeled LTC4. Specific binding, defined as total binding minus nonspecific binding, varied considerably from lot to lot of ^3 H-LTD4. […]

Values joined by “and” are separate entries in the source; they are usually repeats but may differ in a detail not shown here. Identical values can stand only once.

For the molecule `COc1cc(CCc2ccc(NC(=O)C3=C(O)c4ccccc4S(=O)(=O)C3)cc2)cc(OC)c1` [Example 34, N-[4-[2-(3,5-Dimethoxyphenyl)ethyl]phenyl]-4-hydroxy-2H-1-benzothiopyran-3-carboxamide, 1,1-dioxide], the IC50 was 1.58e-05 M. For the molecule `CC(C)(C)c1cc(CCc2ccc(NC(=O)C3=C(O)c4ccccc4S(=O)(=O)C3)cc2)cc(C(C)(C)C)c1O` [Example 77, 2H-1-Benzothiopyran-3-carboxamide, N-[4-[2-[3,5-bis(1,1-dimethylethyl)-4-hydroxyphenyl]ethyl]phenyl]-4-hydroxy-, 1,1-dioxide], the IC50 is 5.96e-06 M.

`O=C(Nc1ccc(CCc2cc(C(F)(F)F)cc(C(F)(F)F)c2)cc1)C1=C(O)c2ccccc2S(=O)(=O)C1` [Example 63, N-[4-[2-[3,5-bis-Trifluoromethyl(phenyl)]ethyl]phenyl]-4-hydroxy-2H-1-benzothiopyran-3-carboxamide, 1,1-dioxide]: the IC50 was 4.42e-06 M and 3.11e-06 M. For the molecule `O=C(Nc1ccc(CCc2ccc(Oc3ccccc3)cc2)cc1)C1=C(O)c2ccccc2S(=O)(=O)C1` [Example 75, 2H-1-Benzothiopyran-3-carboxamide, 4-hydroxy-N-[4-[2-(4-phenoxyphenyl)ethyl]phenyl]-, 1,1-dioxide], the IC50 came to 5.58e-06 M.

Take `O=C(Nc1ccc(CCc2ccc(Cl)c(Cl)c2)cc1)C(=O)C1=C(O)c2ccccc2S(=O)(=O)C1` [Example 69, 2H-1-Benzothiopyran-3-acetamide, N-[4-[2-(3,4-dichlorophenyl)ethyl]phenyl]-4-hydroxy-α-oxo-, 1,1-dioxide]: the IC50 amounted to 2.04e-05 M. Take `O=C(Nc1ccc(CCc2ccc(Cl)c(Cl)c2)cc1)c1sc2ccccc2c1O` [Example 144]: the IC50 is 5e-06 M and 6.43e-06 M and 3.28e-06 M. As for `O=C(Nc1ccc(CCc2ccc(O)cc2O)cc1)C1=C(O)c2ccccc2S(=O)(=O)C1` [Example 31, N-[4-[2-(2,4-Dihydroxyphenyl)ethyl]phenyl]-4-hydroxy-2H-1-benzothiopyran-3-carboxamide, 1,1-dioxide], the IC50 came out at 5.2e-05 M. As to `O=C(Nc1ccc(CCc2cccc(O)c2O)cc1)C1CS(=O)(=O)c2ccccc2C1=O` (centres unmarked) [Example 29, N-[4-[2-(2,3-Dihydroxyphenyl)ethyl]phenyl]-3,4-dihydro-4-oxo-2H-1-benzothiopyran-3-carboxamide, 1,1-dioxide], the IC50 amounted to 3.92e-05 M. On to `O=C(Nc1ccc(CCc2cc(C(F)(F)F)cc(C(F)(F)F)c2)cc1)c1sc2ccccc2c1O` [Example 148, Benzo[b]thiophene-2-carboxamide, N-[4-[2-[3,5-bis(trifluoromethyl)phenyl]ethyl]phenyl]-3-hydroxy], for which the IC50 came out at 0.0001 M. Turning to `COc1cccc(CCc2ccc(NC(=O)C3=C(O)c4ccccc4S(=O)(=O)C3)cc2)c1OC` [Example 28, N-[4-[2-(2,3-Dimethoxyphenyl)ethyl]phenyl]-4-hydroxy-2H-1-benzothiopyran-3-carboxamide, 1,1-dioxide], the IC50 was 5e-05 M and 3.56e-05 M. As for `COc1ccc(OC)c(CCc2ccc(NC(=O)C3=C(O)c4ccccc4S(=O)(=O)C3)cc2)c1` [Example 32, N-[4-[2-(2,5-Dimethoxyphenyl)ethyl]phenyl]-4-hydroxy-2H-1-benzothiopyran-3-carboxamide, 1,1-dioxide], the IC50 amounted to 2.35e-05 M. On to `COc1cc(CCc2ccc(NC(=O)C3=C(O)c4ccccc4S(=O)(=O)C3)cc2)cc(OC)c1OC` [Example 35], for which the IC50 turned out to be 4.23e-05 M.

Turning to `Nc1ccc(C=Cc2ccc(NC(=O)C3CS(=O)(=O)c4ccccc4C3=O)cc2)cc1` (centres unmarked) [Example 66, 2H-1-Benzothiopyran-3-carboxamide, N-[4-[2-(4-aminophenyl)ethenyl]phenyl]-3,4-dihydro-4-oxo-, 1,1-dioxide], the IC50 was determined as 3.15e-05 M. In the case of `O=C(Nc1ccc(CCc2cccc(Cl)c2)cc1)C1=C(O)c2ccccc2S(=O)(=O)C1` [Example 68, 2H-1-Benzothiopyran-3-carboxamide, N-[4-[2-(3-chlorophenyl)ethyl]phenyl]-4-hydroxy-, 1,1-dioxide] it was 4.99e-06 M; in that of `O=C(Nc1ccc(CCc2cccc(C(F)(F)F)c2)cc1)C1=C(O)c2ccccc2S(=O)(=O)C1` [Example 62, N-[4-[2-(3-Trifluoromethylphenyl)ethyl]phenyl]-4-hydroxy-2H-1-benzothiopyran-3-carboxamide, 1,1-dioxide], 1e-05 M and 5.95e-06 M and 4.98e-06 M.

`COc1ccc(CCc2ccc(NC(=O)C3=C(O)c4ccccc4S(=O)(=O)C3)cc2)c(OC)c1` [Example 30, N-[4-[2-(2,4-Dimethoxyphenyl)ethyl]phenyl]-4-hydroxy-2H-1-benzothiopyran-3-carboxamide, 1,1-dioxide]: the IC50 turned out to be 2.26e-05 M. As for `COc1ccc(CCc2ccc(NC(=O)C(=O)c3sc4ccccc4c3O)cc2)cc1OC` [Example 131, N-[4-[2-(3,4-Dimethoxyphenyl)ethyl]phenyl]-3-hydroxy-α-oxo-benzo[b]thiophene-2-acetamide], the IC50 turned out to be 4.4e-06 M.

Values taken from US4868195A, “Novel enolamides, pharmaceutical compositions and methods of use thereof for activity as modulators of the arachidonic acid cascade” (Warner-Lambert Company, priority 1988, dated 1989).
